Experimental data from article PMC3985517, “Abscisic acid dynamics in roots detected with genetically encoded FRET sensors” (eLife, 2014).
Read-outs that look alike come from different tables or passages of the source.

Assays:
[1] = tested on: Arabidopsis seedlings; assay: Primary root growth of ABACUS1 plant lines on ABA plates; assay type: in vivo
Method: (§1) For ABA treatments, 20 mM (±)-ABA was prepared freshly as a stock solution in 50 mM NaOH. Mock treatment plates were made using NaOH to keep pH consistent. Root tips were marked at the time of transfer and images were acquired after 4 days growth on vertical treatment plates. Root growth after transfer were measured using FIJI (http://fiji.sc/). Each experiment included ∼15 roots per genotype and was repeated three independent times with similar results. ABA sensitivity of seed germination rate of Arabidopsis seeds was assayed after sowing on ½ × MS agar medium plates supplemented with 0, 2 or 20 µM (±)-ABA. […] Plates were stratified for 2 days at +4°C after which they were transferred to a growth chamber with standard long day conditions (16 hr high light, 22°C, 70% RH). Seeds were considered germinated at radicle emergence and germination rate was assayed 9 days post sowing in three independent experiments of 100–200 seeds per genotype. The abi1-2, hab1-1, pp2ca-1 triple mutant line was a gift from Pedro Rodriguez ([Rubio et al., 2009]).

[2] = tested on: Arabidopsis seeds; assay: Seed germination on ABA plates; assay type: in vivo; details: all genotypes; plates with 20 µM (±)-ABA
Method: as §1

[3] = tested on: Arabidopsis roots; assay: ABACUS1 responses in roots perfused with ABA in the RootChip16; assay type: in vivo
Method: The RootChip16 device was used as described in detail previously for the RootChip ([Grossmann et al., 2011], [2012]). Briefly, the device was sterilized by UV light exposure, immersed in liquid growth media (¼ × MS salts, 1.28 mM MES pH 5.7 supplemented with B vitamins at final concentrations of niacin 2.3 µM, thiamine 1.5 µM, pyridoxin 1.2 µM and myo-inositol 0.3 µM), and air in the root observation chambers was removed by applying suction at the solution outlets using a microliter pipette. 5-day old Arabidopsis seedlings, germinated on 5 mm long cut 10 µl pipette tips filled with solidified growth medium (½ × MS salts, 1% Agar, 2.56 mM MES pH 5.7 supplemented with B vitamins at final concentrations of niacin 4.6 µM, thiamine 3.0 µM, pyridoxin 2.4 µM and myo-inositol 0.6 µM, were transferred onto the chip by plugging the tips into the root inlets. The chip was incubated for 24 hr under standard long-day growth conditions (16 hr high light, 22°C, 70% RH) to allow roots to grow into the observation chambers. Before imaging, the RootChip16 was inserted from below into the central aperture of the carrier and fixed with tape. Pressure lines for control over micromechanical valves and flow lines for perfusion of solutions were connected. To actuate the push-up valves on the chip, a closing pressure of 15 p.s.i (1.03 bar) was applied to the water filled control lines. […]

[4] = set-up: method as in Kaiser and Hartung, 1981; details: ref Kaiser and Hartung, 1981; cited from earlier work
[5] = tested on: Arabidopsis roots; set-up: method as in Grossmann et al., 2011; details: ref Grossmann et al., 2011; cited from earlier work
[6] = tested on: ABACUS1-2µ; assay type: biochemical, Arabidopsis; details: Figure 3B-E

CC1=CC(=O)CC(C)(C)C1(O)/C=C/C(C)=C\C(=O)O (racemic) [(±)-ABA]
root growth of ABACUS1-2µ sensor lines ([1]; 20 µM exogenous (±)-ABA): almost completely inhibited | root growth of ABACUS1-80µ plants ([1]; 100 µM exogenous (±)-ABA): strongly inhibited | germination [2]: 0%

CC1=CC(=O)CC(C)(C)[C@@]1(O)/C=C/C(C)=C\C(=O)O [ABA, abscisic acid]
accumulation rate of a non-pre-exposed root relative to a root pre-exposed to ABA ([3]; first ABA pulse, 5 µM (±)-ABA, ABACUS1-2µ roots): nearly twice | time to saturation of sensor responses ([3]; typical experiment, roots): ~15 min | pKa [4]: 4.7

OC[C@H]1OC(O)[C@H](O)[C@@H](O)[C@@H]1O (stereo partly drawn) [Glucose, glucose]
time to saturation of sensor responses [5]: less than 1 min

O=S(=O)(NCc1ccccn1)c1ccc(Br)c2ccccc12 [Pyrabactin, pyrabactin]
increase in energy transfer of ABACUS1 (positive ratio change), in words [6]: induced

O=c1[nH]c(=O)c2nc[nH]c2[nH]1 [Xanthine, xanthine]
increase in energy transfer of ABACUS1 (positive ratio change), in words [6]: did not occur
